Data taken from ChEMBL document CHEMBL1136769 (J Med Chem, 2003).

Assays:
[1] = target: Sodium-dependent dopamine transporter (Macaca mulatta); experiment: Inhibition of [3H]WIN-35428 Binding to the Dopamine Transporter in Rhesus (Macaca mulatta) orCynomolgus Monkey (Macaca fascicularis) Caudate-Putamen
[2] = Inhibition of [3H]citalopram Binding to the Serotonin Transporter in Rhesus (Macaca mulatta) or Cynomolgus Monkey (Macaca fascicularis) Caudate-Putamen

COC(=O)[C@@H](c1ccccc1)[C@@H]1CCCCO1
IC50 [1]: 3 µM | IC50 [2]: > 100 µM

COC(=O)C(c1ccc(Cl)c(Cl)c1)C1CCCC1 (configuration not stated)
IC50 [1]: 0.047 µM | IC50 [2]: 7 µM

COC(=O)[C@@H](c1ccc2ccccc2c1)[C@@H]1CCCCO1
IC50 [1]: 0.43 µM | IC50 [2]: 1 µM

N#CC(c1ccc(Cl)c(Cl)c1)C1CCCC1 (configuration not stated)
IC50 [1]: 0.128 µM | IC50 [2]: 10 µM

COC(=O)C(c1ccc(Cl)c(Cl)c1)C1CCCCC1 (configuration not stated)
IC50 [2]: 12 µM

COC(=O)[C@H](c1ccc(Cl)c(Cl)c1)[C@H]1CCCCO1
IC50 [2]: > 10 µM

N#CC(c1ccc(Cl)c(Cl)c1)C1CCCCC1 (configuration not stated)
IC50 [1]: 0.127 µM | IC50 [2]: 8 µM

COC(=O)C(c1ccccc1)C1CCCCN1 (racemic) [METHYLPHENIDATE]
IC50 [2]: > 100 µM

COC(=O)[C@H](c1ccccc1)[C@@H]1CCCCO1 (single isomer, unassigned)
IC50 [1]: 13 µM | IC50 [2]: > 100 µM

COC(=O)[C@@H](c1ccc(Cl)c(Cl)c1)[C@H]1CCCCO1 (single isomer, unassigned)
IC50 [2]: 7.8 µM

COC(=O)[C@H](c1ccc2ccccc2c1)[C@@H]1CCCCO1 (single isomer, unassigned)
IC50 [1]: 4 µM | IC50 [2]: 10 µM

COC(=O)[C@H](c1ccc(Cl)c(Cl)c1)[C@@H]1CCCCO1 (single isomer, unassigned; 5c)
IC50 [2]: 7.79 µM

COC(=O)[C@H](c1ccc(Cl)c(Cl)c1)[C@@H]1CCCCO1 (single isomer, unassigned; 15)
IC50 [2]: > 10 µM

COC(=O)[C@@H](c1ccc(Cl)c(Cl)c1)[C@@H]1CCCCO1 (stereo in doubt; 4c)
IC50 [2]: 2.18 µM

COC(=O)[C@@H](c1ccc(Cl)c(Cl)c1)[C@@H]1CCCCO1 (stereo in doubt; 12)
IC50 [2]: 1.66 µM
